Assay results from BindingDB's records for doi:10.7270/Q2TX3CTT (Broad Institute, 2010).

Biological target: Glycogen synthase kinase-3 beta (Homo sapiens, UniProt P49841)
Experiment: concentration-response blocking of human GSK3B – biochemical, luminescence, cell-free homogeneous, retest, dose response (AID 434954)

Glycogen synthase kinase-3 beta, sequence (P49841 whole entry): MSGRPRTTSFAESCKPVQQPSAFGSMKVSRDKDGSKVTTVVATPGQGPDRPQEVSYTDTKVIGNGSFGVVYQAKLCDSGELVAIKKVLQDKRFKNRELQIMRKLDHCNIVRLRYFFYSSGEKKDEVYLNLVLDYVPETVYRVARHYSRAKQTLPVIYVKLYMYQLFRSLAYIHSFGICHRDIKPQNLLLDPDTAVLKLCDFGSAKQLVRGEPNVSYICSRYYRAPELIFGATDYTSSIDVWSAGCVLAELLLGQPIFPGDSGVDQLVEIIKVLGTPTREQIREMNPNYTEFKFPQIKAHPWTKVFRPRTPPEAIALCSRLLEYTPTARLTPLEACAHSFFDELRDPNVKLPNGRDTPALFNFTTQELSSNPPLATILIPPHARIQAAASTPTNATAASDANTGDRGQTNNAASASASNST

`COc1ccccc1N(CC(=O)N1CCc2ccccc2C1)S(C)(=O)=O` [N-[2-(3,4-dihydro-1H-isoquinolin-2-yl)-2-oxoethyl]-N-(2-methoxyphenyl)methanesulfonamide] showed an EC50 of over 300 µM.
With `COc1ccc(OC)c(C(O)c2coc3ccc(O)c(CN(C)C)c23)c1` (stereo not given) the EC50 was over 300 µM.
`CCOC(=O)C1C(=CN2CCSCC2)NC(=O)NC1c1cc(C)ccc1C` (stereo not given) [MLS000052412] gave an EC50 of over 300 µM.
Work on `CC(C)=CCc1cc([C@@H]2CC(=O)c3ccc(O)c(CC=C(C)C)c3O2)ccc1O` [MLS000697605] yielded an EC50 of 58.4 µM.
Compound `CCOC(=O)c1sc(Nc2ccccc2)nc1C` has an EC50 of over 300 µM.
Work on `CN1CCN(CCNC(=O)Nc2ccccc2[N+](=O)[O-])CC1` [N-[2-(4-methylpiperazin-1-yl)ethyl]-N'-(2-nitrophenyl)urea] yielded an EC50 of over 300 µM.
`CC(CC(=O)Nc1nnc(C(C)(C)C)s1)c1ccccc1` (stereo not given) [MLS001205585] was tested, and the EC50 was over 300 µM.
In the case of `CC(=O)N1CCc2c(sc(NC(=O)C3CCCN3S(=O)(=O)c3cccs3)c2C(N)=O)C1` (stereo not given) [6-acetyl-2-[(1-thiophen-2-ylsulfonylpyrrolidine-2-carbonyl)amino]-5,7-dihydro-4H-thieno[2,3-c]pyridine-3-carboxamide], the EC50 is reported as over 300 µM.
Compound `CNC(=O)NC(=O)CSc1nc2ccccc2n1CCOC` [2-[1-(2-methoxyethyl)benzimidazol-2-yl]sulfanyl-N-(methylcarbamoyl)ethanamide] has an EC50 of over 300 µM.
For `Cc1ccc(Nc2nc(N)c([N+](=O)[O-])c(NCc3ccccc3)n2)cc1` [N2-(4-methylphenyl)-5-nitro-N4-(phenylmethyl)pyrimidine-2,4,6-triamine], the EC50 was over 300 µM.
Work on `O=C(COc1ccccc1[N+](=O)[O-])NN=Cc1cccs1` [SMR000185881] yielded an EC50 of over 300 µM.
`COc1ccc(C(O)c2coc3ccc(O)c(CN(C)C)c23)cc1` (stereo not given) [SMR000070308] gave an EC50 of over 300 µM.
`COc1c(CC=C(C)C)cc(C2CC(=O)c3c(O)cc(O)cc3O2)c(CC=C(C)C)c1O` (stereo not given) [5,7-dihydroxy-2-[3-hydroxy-4-methoxy-2,5-bis(3-methylbut-2-enyl)phenyl]-2,3-dihydrochromen-4-one] showed an EC50 of over 300 µM.
With `O=C(O)c1ccc(CN=Nc2ccc(C(F)(F)F)cn2)cc1` the EC50 was 20.4 µM.
`Oc1ccc(CN=Nc2ncc(Br)cn2)c(O)c1` showed an EC50 of 12.3 µM.
`C[n+]1ccccc1C=Cc1cc(Br)ccc1O` [SMR000554448] was tested, and the EC50 was over 300 µM.
Work on `COc1ccc(CN(CC(=O)NCCc2ccccc2)C(=O)CCC(=O)Nc2ccccn2)cc1` [N'-[(4-methoxyphenyl)methyl]-N'-[2-oxo-2-(2-phenylethylamino)ethyl]-N-pyridin-2-ylbutanediamide] yielded an EC50 of over 300 µM.
`CCOc1cccc(-c2c(C(=O)NN=C(C)c3cccs3)nnn2-c2nonc2N)c1` [1-(4-azanyl-1,2,5-oxadiazol-3-yl)-5-(3-ethoxyphenyl)-N-(1-thiophen-2-ylethylideneamino)-1,2,3-triazole-4-carboxamide] was tested, and the EC50 was 96.9 µM.
`Clc1ccc(CSc2nnc(-c3ccncc3)o2)cc1` [2-[(4-chlorobenzyl)thio]-5-(4-pyridyl)-1,3,4-oxadiazole] showed an EC50 of 25.9 µM.
`COc1ccccc1N1CCN(/N=C/c2ccc(Cl)c([N+](=O)[O-])c2)CC1` showed an EC50 of over 300 µM.
`CCn1c(SCC(=O)Nc2cc(Cl)ccc2OC)nnc1C1CC1` [MLS001220637] gave an EC50 of over 300 µM.
`N#Cc1c(-c2ccccc2)nc(SCC(=O)NC2CCCCC2)[nH]c1=O` [2-[(5-cyano-4-oxo-6-phenyl-1H-pyrimidin-2-yl)sulfanyl]-N-cyclohexylacetamide] was tested, and the EC50 was over 300 µM.
For `COc1ccc2c(c1)=C(NN1C(=O)c3ccccc3C1=O)C(=O)N=2` [2-[(5-methoxy-2-oxidanylidene-indol-3-yl)amino]isoindole-1,3-dione], the EC50 was over 300 µM.
Compound `Nc1nonc1-n1nnc(C(=O)NN=Cc2ccccc2Cl)c1CN1CCOCC1` has an EC50 of 60.5 µM.
In the case of `CC1(C)CC(CC(=O)NC(=S)Nc2ccc([N+](=O)[O-])cc2)C(=O)O1` (stereo not given) [2-(5,5-dimethyl-2-oxotetrahydro-3-furanyl)-N-{[(4-nitrophenyl)amino]carbonothioyl}acetamide], the EC50 is reported as 26.7 µM.
`C=CCNc1nc(N)c([N+](=O)[O-])c(NC2CCCCC2)n1` [4-N-cyclohexyl-5-nitro-2-N-prop-2-enylpyrimidine-2,4,6-triamine] was tested, and the EC50 was 5.45 µM.
`CN(C)Cc1c(O)ccc2c1O/C(=C\C=C\c1ccccc1)C2=O` [7-Dimethylaminomethyl-6-hydroxy-2-[(E)-3-phenyl-prop-2-en-(Z)-ylidene]-benzofuran-3-one] was tested, and the EC50 was 31.4 µM.
`COc1ccc(-c2ccc3c(N)c(C(=O)c4cccc(OC)c4)sc3n2)cc1` [SMR000160395] showed an EC50 of over 300 µM.
`CC[n+]1c(/C=C/N(C)c2ccccc2)oc2ccccc21` [SMR000184373] gave an EC50 of over 300 µM.
Compound `CCCCCCN1C(=O)NC(=O)C(=CNCCCn2ccnc2)C1=O` [(5E)-1-hexyl-5-[[3-(1-imidazolyl)propylamino]methylidene]-1,3-diazinane-2,4,6-trione] has an EC50 of 14.3 µM.
`Cc1onc(-c2ccccc2Cl)c1C(=O)NNC(=O)c1ccc(F)cc1` [MLS001223650] showed an EC50 of over 300 µM.
`Cc1ccccc1-n1nnc2c(=O)oc3ccccc3c21` [1-(2-methylphenyl)chromeno[3,4-d]triazol-4-one] gave an EC50 of over 300 µM.
Compound `CC(CC(=O)NCc1ccccc1)=NNC(=O)c1cnccn1` [MLS000701004] has an EC50 of over 300 µM.
In the case of `COc1ccc2occ(C(=O)c3cccs3)c2c1`, the EC50 is reported as 4.03 µM.
`COc1ccc(C(=O)c2coc3ccc(O)c(CN4CCOCC4)c23)cc1` [MLS000115876] gave an EC50 of over 300 µM.
In the case of `CCCn1nc(NC(=O)C2CCCO2)c2cc3cc(C)ccc3nc21` (stereo not given) [SMR000148635], the EC50 is reported as over 300 µM.
Compound `CN1CCN(/N=C/c2ccc(-c3ccc([N+](=O)[O-])cc3Cl)o2)CC1` [1-[5-(2-chloro-4-nitrophenyl)-2-furanyl]-N-(4-methyl-1-piperazinyl)methanimine] has an EC50 of over 300 µM.
`OCCNc1nc(-c2cccnc2)nc2ccccc12` [MLS000107346] gave an EC50 of over 300 µM.
In the case of `N#Cc1ccccc1NC(=O)CSc1nnc(-c2ccncc2)o1`, the EC50 is reported as over 300 µM.
Compound `CC(C)CCn1c(CN2CCN(c3cccc(Cl)c3)CC2)nc2c1c(=O)n(C)c(=O)n2C` [SMR000017148] has an EC50 of over 300 µM.
`CC1=NN(C(=O)CCc2ccc3c(c2)OCO3)C(O)(C(F)(F)F)C1` (stereo not given) [SMR000289779] gave an EC50 of over 300 µM.
Work on `CN1CCc2c(sc(NC(=O)Cc3ccccc3)c2C(N)=O)C1` [MLS000879155] yielded an EC50 of over 300 µM.
`COc1ccccc1C=NNC(=O)c1nnn(-c2nonc2N)c1CN(C)c1ccccc1` [1-(4-amino-1,2,5-oxadiazol-3-yl)-N-[(2-methoxyphenyl)methylideneamino]-5-[(N-methylanilino)methyl]triazole-4-carboxamide] gave an EC50 of 4.14 µM.
For `Cc1ccc(N2CCN(C(=O)N3CCOCC3)CC2)c(C)c1` [[4-(2,4-dimethylphenyl)piperazin-1-yl]-morpholin-4-ylmethanone], the EC50 was over 300 µM.
`CCCn1nc(NC(=O)c2cccs2)c2cc3ccccc3nc21` [Thiophene-2-carboxylic acid (1-propyl-1H-pyrazolo[3,4-b]quinolin-3-yl)-amide] was tested, and the EC50 was over 300 µM.
`c1ccc(CNc2ncnc3scc(-c4cccs4)c23)nc1` [N-(pyridin-2-ylmethyl)-5-thiophen-2-yl-thieno[2,3-d]pyrimidin-4-amine] was tested, and the EC50 was over 300 µM.
With `COc1ccc(-c2cc(-c3ccco3)nc(O)c2C#N)cc1` [6-(furan-2-yl)-4-(4-methoxyphenyl)-2-oxidanylidene-1H-pyridine-3-carbonitrile] the EC50 was over 300 µM.
In the case of `COC(=O)c1c(C)oc2ccc(OC(=O)c3cccs3)cc12` [methyl 2-methyl-5-thiophen-2-ylcarbonyloxy-1-benzofuran-3-carboxylate], the EC50 is reported as over 300 µM.
Work on `CCn1c(/C=C/N(C)c2ccccc2)[n+](CC)c2cc(Cl)ccc21` [SMR000173749] yielded an EC50 of over 300 µM.
Work on `COc1ccc(C(=O)ON=C(C)c2ccccc2)cc1` [SMR000159704] yielded an EC50 of 20.9 µM.
Compound `Cn1ncc(Br)c1C(=O)Nc1cccc(C(F)(F)F)c1` [MLS000711234] has an EC50 of over 300 µM.
`COc1ccc(-c2nn(-c3ccccc3)cc2CN=O)cc1OC` [N-[[3-(3,4-dimethoxyphenyl)-1-phenylpyrazol-4-yl]methylidene]hydroxylamine] gave an EC50 of 3.99 µM.
Compound `CCOCCOC(=O)c1ccc(-n2cnc(C)n2)nc1` [SMR000337218] has an EC50 of over 300 µM.
`N#Cc1c(-c2cccs2)cc(-c2cccnc2)nc1N` [SMR000043147] showed an EC50 of 10.4 µM.
`COCCN(CC(=O)NCc1ccccc1)C(=O)CCC(=O)Nc1ccccn1` [SMR000004552] was tested, and the EC50 was over 300 µM.
With `CCC(C)NC(=O)CNC(=S)N(CCCN1CCOCC1)Cc1cccs1` (stereo not given) [N-butan-2-yl-2-[[3-morpholin-4-ylpropyl(thiophen-2-ylmethyl)carbamothioyl]amino]ethanamide] the EC50 was over 300 µM.
Compound `O=NCc1cn(-c2ccccc2)nc1-c1ccccc1` [1,3-diphenyl-4-pyrazolecarboxaldehyde oxime] has an EC50 of 26 µM.
In the case of `CC1(C)CC(=O)C2C(=Nc3[nH]c(=S)[nH]c(=O)c3C2c2ccccc2)C1` (stereo not given) [8,8-dimethyl-5-phenyl-2-sulfanylidene-5,7,9,10-tetrahydro-1H-pyrimido[4,5-b]quinoline-4,6-dione], the EC50 is reported as over 300 µM.
Compound `CCCCn1nc(NC(=O)CC)c2cc3cc(OC)ccc3nc21` [N-(1-butyl-6-methoxy-pyrazolo[3,4-b]quinolin-3-yl)propanamide] has an EC50 of 43.6 µM.
Work on `CN(CCO)S(=O)(=O)c1ccc2c(c1)C(=NNC(N)=O)c1cc(S(=O)(=O)N(C)CCO)ccc1-2` [MLS000766695] yielded an EC50 of over 300 µM.
For `O=[N+]([O-])c1ccc(Cl)cc1NCCCN1CCOCC1`, the EC50 was over 300 µM.
Compound `Nc1nonc1-n1nnc(C(=O)NN=Cc2ccc(OCc3ccccc3F)cc2)c1CN1CCCCC1` [SMR000646487] has an EC50 of over 300 µM.
`O=c1cccc2oc(-c3ccccc3Cl)cc(O)c1-2` [2-(2-chlorophenyl)-5-hydroxy-1-benzopyran-4-one] was tested, and the EC50 was over 300 µM.
For `Cn1nnc2sc3c(c2c1=O)CCCC3` [MLS000557299], the EC50 was 23.3 µM.
`O=C(CCc1ccccc1)Nc1cccc([N+](=O)[O-])c1` [MLS000856399] was tested, and the EC50 was over 300 µM.
`COc1cccc2c1cc1c(=O)n(CC(=O)N3CCC(C)CC3)nc(C)n12` showed an EC50 of over 300 µM.
`CCOc1ccc2nc(NC(=O)CSc3nc4cccnc4n3C)sc2c1` was tested, and the EC50 was 1.25 µM.
Work on `CC(=O)Oc1cccc(N2C(=O)c3ccc(C(=O)Nc4cccnc4)cc3C2=O)c1` [SMR000306801] yielded an EC50 of over 300 µM.
With `COc1cc(/C=N/NC(=O)c2ccc(Cl)cc2)ccc1Oc1ccc([N+](=O)[O-])cn1` the EC50 was over 300 µM.
In the case of `COc1ccc(C)cc1NC(=O)CN(C)S(=O)(=O)c1ccc2c(c1)CC(C)N2C(C)=O` (stereo not given) [MLS001122753], the EC50 is reported as over 300 µM.
